Like-named read-outs stand apart in the source and are kept apart here.
Key:
PGE2 = PGE2 level in cauda equina fibers by ELISA; assay type: in vivo, Sprague-Dawley rats
Method: (§1) Only rats with a weight in the range of 350 to 380 g and in which chronic mechanical allodynia (2.5-4.0 g) was induced on the 28th day of compression of the cauda equina were selected as the experimental group. The rats were randomly assigned to three experimental groups treated with a vehicle, celecoxib, or the compound according to the present invention.
(§2) Celecoxib (Sigma, St. Louis, Mo.) or the compound according to the present invention was dissolved in methyl pyrrolidone:Tween-80:saline (1:1:8, 100 μl) and injected intraperitoneally at a dose of 2, 5, or 10 mg/kg. The vehicle group was injected with 1-methyl-2-pyrrolidone (1-methyl-2-pyrrolidone:Tween-80:saline (1:1:8)) at an equal dose.
(§3) For analysis at the molecular level, the rats were perfused with 0.1 M PBS, and a 20 mm-thick section of the cauda equina with the site of injury at the center was isolated and kept frozen at −80° C. until use.
Levels of PEG2 in the cauda equina fibers were analyzed using a PEG2 ELISA kit (Monoclonal, Cayman Chemical Ann Arbor, Mich.) according to the manufacturer's instructions.
An experiment was performed using rats administered with celecoxib and the compound according to the present invention to confirm through RT-PCR whether production of inflammatory mediators is inhibited. Another experiment was performed to confirm through ELISA whether production of PGE2 is inhibited.

TNF-α mRNA = assay: RT-PCR of TNF-α mRNA in cauda equina of chronic mechanical allodynia-induced rats; assay type: in vivo, Sprague-Dawley rats; conditions: 30 minutes after administering
Method: as §1, §2
(§4) At the time of the peak effect (30 minutes after injection of drug), the rats were anesthetized by injecting chloral hydrate (500 mg/kg) and perfused with 0.1 M PBS (pH 7.4), followed by perfusion with a solution containing 4% paraformaldehyde added to PBS.
as §3
(§5) RT-PCR of TNF-α, IL-1β, IL-6, iNOS, and GAPDH was performed. […]

IL-6 mRNA = assay: RT-PCR of IL-6 mRNA in cauda equina of chronic mechanical allodynia-induced rats; assay type: in vivo, Sprague-Dawley rats; conditions: 30 minutes after administering
Method: as §1, §2, §4, §3, §5

iNOS mRNA = assay: RT-PCR of iNOS mRNA in cauda equina of chronic mechanical allodynia-induced rats; assay type: in vivo, Sprague-Dawley rats; conditions: 30 minutes after administering
Method: as §1, §2, §4, §3, §5

[1] = test system: chronic mechanical allodynia-induced rats; assay: Paw withdrawal threshold (von Frey) in chronic mechanical allodynia-induced rats after compression of the cauda equina; assay type: in vivo, Sprague-Dawley rats
Method: For experiments related to the present invention, a total of 167 male Sprague-Dawley rats (250 to 270 g, Samtako, Osan, Korea) were used. The rats were kept in an environment of room temperature (23±1° C.) and 60±10% humidity under a 12-hour light/12-hour dark cycle (light on from 07:30 to 19:30) and given free access to water and food. The rats were housed individually in cages (410×282×153 mm, clear polycarbonate) lined with aspen shaving bedding and fed a commercial diet (5L79, PMI Nutrition International, St Louis, Mo.) and a commercial standard feed (Lab Diet 5L791 Purina Mills, Richmond, Ind.). All animal experiments were performed in accordance with the guidelines of the Animal Protection Committee of Kyung Hee University (Permission No. KHUASP(SE)-15-006) and in compliance with the ethical guidelines of the International Association for the Study of Pain.
More specifically, the rats were anesthetized by administering chloral hydrate (500 mg/kg) as an intraperitoneal injection, the backside of each rat was shaved, and the L4 to S2 vertebral plates were exposed.
Next, the ligamenta flava between L4 and L5 were removed. […]
Mechanical allodynia was assessed by detecting responses to stimulation with calibrated von Frey filaments and evaluated in terms of paw withdrawal threshold (PWT). […]

[2] = test system: LPS-induced PGE2 production in RAW 264.7 (a murine macrophage cell line); assay: Inhibition of production of LPS-induced PGE2 by macrophage cell line; assay type: cell-based; conditions: Mus musculus
Method: RAW 264.7 (a murine macrophage cell line) was obtained from Korea Cell Line Bank (KCLB). RAW 264.7 was cultured in Dulbecco's Modified Eagle Medium (DMEM) containing 10% fetal bovine serum (FBS), penicillin (100 units/mL), and streptomycin sulfate (100 μg/mL) at 37° C. and in a humidified atmosphere of 5% carbon dioxide in air.
Using DMEM, 1 mL each of RAW 264.7 with a concentration of 5×10^5 cells/mL was seeded in 24 wells. The seeded cells were left overnight, the medium was changed, and then the drug was treated at an appropriate concentration. After incubating for 1 hour, LPS was treated at 1 μg/ml, followed by incubation for 24 hours (or an appropriate length of time). The supernatant was taken and diluted 5-fold. 150 μl of an assay buffer was added to Non-Specific Binding (NSB) wells, and 100 μl of the assay buffer was added to zero standard (Bo) wells. 100 μl of standard sample and 50 μl of PGE2 conjugates were added to the remaining wells (excluding the NSB wells). 50 μl of PGE2 antibody solution was added to the wells and shaken for 2 hours. The contents of each well were suctioned off, and the wells were washed 5 times with wash buffer. 200 μl of para-nitrophenyl phosphate (pNPP) substrate was added to all wells. After storing the wells at room temperature (in a clean bench) for 1 hour, 50 μl of a stop solution was added, and absorbance was measured at 405 nm. […]

IL-1β mRNA = assay: RT-PCR of IL-1β mRNA in cauda equina of chronic mechanical allodynia-induced rats; assay type: in vivo, Sprague-Dawley rats
Method: as §1, §2, §4, §3, §5

[3] = test system: RAW 264.7 (the murine macrophage cell line); assay: Cytotoxicity of macrophages (MTT assay); assay type: cell-based; conditions: Mus musculus, RAW264.7; RAW 264.7, LPS 1 μg/ml, 24 hours; read-out: Cell viability(μM) (IC50, MTT assay)
Method: The physiological activity of 3-(4-chlorophenyl)-4-(4-aminosulfonyl-phenyl)-1-methyl-1H-pyrrole-2,5-dione prepared according to Example 2 has been expressed in terms of IC50, which is the concentration at which there is 50% inhibition of the activity of an enzyme. On the other hand, for the cytotoxicity of the compounds according to the present invention, cell viability values (IC50) were measured using the MTT assay.
RAW 264.7 (the murine macrophage cell line) was cultured in DMEM containing 10% FBS, penicillin (100 units/ml), and streptomycin sulfate (100 μg/ml) at 37° C. and in a humidified atmosphere of 5% carbon dioxide in air. Cells were collected using centrifugation and a scraper. The cells were added at a concentration of 1×10^5 cells/well to wells of a 96-well plate containing Roswell Park Memorial Institute (RPMI) 1640 medium, which includes 10% FBS. 3 beta, 4 beta-epoxy-8a-isobutyryloxyguaia-1(10),11, (13)-diene-12.6a-olide was dissolved in methylsulfoxide (DMSO) as a solvent. […] After one night, samples and LPS (1 μg/ml) were added to the wells, and the plate was incubated for 24 hours. […]

CN1C(=O)C(c2ccc(Cl)cc2)=C(c2ccc(S(N)(=O)=O)cc2)C1=O [3-(4-chlorophenyl)-4-(4-aminosulfonyl-phenyl)-1-methyl-1H-pyrrole-2,5-dione]
PGE2 production compared to the vehicle group (PGE2): significantly reduced
expression of TNF-α mRNA (TNF-α mRNA): significantly reduced
expression of IL-6 mRNA (IL-6 mRNA): significantly reduced
expression of iNOS mRNA (iNOS mRNA): significantly reduced
PWT compared to the vehicle group ([1]; 2, 5, 10 mg/kg intraperitoneal, 30 minutes after injecting): increased significantly in a dose-dependent manner
duration of analgesic effect ([1]; high dose, intraperitoneal): 3 h
IC50 ([2]; RAW264.7, 24 h, RAW 264.7, LPS 1 μg/ml, 24 hours, read-out: IC50(μM) PGE2): 0.0087 µM
IC50 ([2]; RAW264.7, RAW 264.7, LPS-induced, text/FIG. 2, read-out: IC50 value for inhibition of PGE2 production): 0.00595 µM
expression of IL-1β mRNA (IL-1β mRNA): significantly reduced
IC50 [3]: > 10 µM

Source: patent US20220202774A1, “PHARMACEUTICAL COMPOSITION FOR PREVENTION OR TREATMENT OF SPINAL CORD INJURY OR SPINAL STENOSIS” (NEUROBIT SCIENCE CO., LTD., priority 2019, published 2022)
